{
  "source": "patent US8183005B1",
  "about": "“Pharmaceutical agents for treating HCV infections” (priority 2004, dated 2012)",
  "key": {"HCV replication": {"test_system": "HCV replication", "experiment": "Recovery from replication inhibition by C2-ceramide, Western blot", "assay_type": "cell-based", "details": "C2-ceramide added at the same time, 96 hours", "procedure": "To elucidate whether the inhibitory activity of the compound represented by formula (II) against the HCV replicon is dependent on the sphingolipid biosynthetic pathway, cell-permeable ceramide, C2-ceramide (Sigma, Cat. No. A7191), was added to HCV replicon cells at the same time as the compound represented by formula (II), and these were cultured for 96 hours. These cell extracts were used to perform Western blot analysis using a method similar to that of Example 5."}, "NS3, NS5A, and NS5B": {"test_system": "NS3, NS5A, and NS5B", "experiment": "Western blotting of NS3, NS5A and NS5B in replicon cells", "assay_type": "cell-based, HCV", "details": "100 nM, 48 hours and 96 hours", "procedure": "Replicon cells were treated with 100 nM of the compound represented by formula (II) for the lengths of time indicated in FIG. 11 (48 hours and 96 hours). Western blot analysis was performed using a method similar to that of Example 5."}, "in vitro": {"experiment": "in vitro", "assay_type": "cell-based", "details": "human", "procedure": "Firefly luciferase HCV replicon cells (Huh-3-1) suspended in Dulbecco's MEM (Gibco Cat. No. 10569) containing 5% fetal bovine serum (Hyclone Cat. No. SH30071.03) were plated onto a 96-well plate at 5000 cells/well, and cultured overnight under 5% CO2 at 37° C. Approximately 20 hours later, fumonisin B1 was added to a final concentration of 1.37 μM to 1000 μM by carrying out a sequential three-fold dilution, and the cells were then cultured for three more days. The assay was carried out by preparing two types of assay plates: one an opaque white plate and the other a transparent plate. After culturing, the white plate was subjected to the Steady-Glo Luciferase Assay System (Promega Cat. No. E2520). More specifically, 100 μL of reagent was added to each well, mixed three to four times using a pipette, and then stood for five minutes before luminescence was measured using 1450 MicroBeta TRILUX (WALLAC). IC50 (50% inhibitory concentration) of a pharmaceutical agent was calculated by subtracting the value obtained without adding the cells as the background value from all of the values, and then defining the level of inhibition without addition of the pharmaceutical agent as 0%. A Cell Counting Kit-8 (DOJINDO Laboratories, Cat. No. 341-07761) was used for the cytotoxicity assays. 10 μL of reagent was added to each well, mixed three to four times using a pipette, and then stood for approximately 30 minutes; measurements were performed when OD450 nm reached approximately 1.0. IC50 (50% inhibitory concentration) of a pharmaceutical agent was calculated by subtracting the value obtained without adding the cells as the background value from all of the values, and then defining the level of inhibition without addition of the pharmaceutical agent as 0%.\nBased on the results of Example 5, the following method was used to measure the effect on cytotoxicity and HCV replicon activity under conditions in which Huh-3-1 cells show reduced LCB1 expression. More specifically, cells were plated onto a 96-well plate at 3500 cells per well, and cultured overnight under 5% CO2 at 37° C. 1.75 μL of 2 μM siRNA was added to 23.3 μL of ECR buffer (buffer included in the RNAiFect Kit), this was stirred vigorously, and then 0.31 μL of RNAiFect transfection reagent was added. This was stirred gently at room temperature and then allowed to stand for ten minutes. siRNA was added to a final concentration of 35 nM, and this was cultured for four days. The effect on cytotoxicity was determined by adding 10 μL of Cell Counting Kit-8 (DOJINDO Laboratories Cat. No. 341-07761) to the medium, mixing three to four times using a pipette, and then allowing this to stand for one hour at 37° C. Absorbance was then measured at 450 nm using a microplate reader Emax (Molecular Devices). After incubation, the medium was exchanged for fresh medium, and the plate was subjected to the Steady-Glo Luciferase Assay System (Promega Cat. No. E2520). 100 μL of reagent was added to each well, mixed three to four times using a pipette, and then allowed to stand for five minutes. Luminescence was then measured using 1450 MicroBeta TRILUX (WALLAC) to determine the HCV replicon activity. IC50 (50% inhibitory concentration) of a pharmaceutical agent was calculated by subtracting the value obtained without adding the cells as the background value from all of the values, and then defining the level of inhibition without addition of the pharmaceutical agent as 0%.\nA Cell Counting Kit-8 (DOJINDO Laboratories, Cat. No. 341-07761) was used for the cytotoxicity assays. More specifically, 10 μL of Cell Counting Kit-8 was added to the transparent plate, and this was warmed at 37° C. for 30 to 60 minutes. Using a 96-well plate reader, absorbance was measured at a wavelength of 450 nm with a reference wavelength of 630 nm. […]"}, "[1]": {"test_system": "raft proteins (NS5B, NS5A, caveolin-2)", "experiment": "Effect on raft proteins, sucrose density gradient fractionation, Western blot or ELISA", "assay_type": "cell-based", "details": "72 hours", "procedure": "1 mM of the compound represented by formula (II) was added to the HCV replicon cells, then 72 hours later the cell extract was treated for one hour with a solubilizer, 1% Nonidet P-40 (Nacalai tesque, Cat. No. 252-23). Fractions 1 to 9 were separated by the sucrose density gradient fractionation method, and Western blot analysis was performed using a method similar to that of Example 5. […] Caveolin-2 expression was confirmed using a caveolin-2 antibody (BD Transduction, Cat. No 610684).\n1 μM of the compound represented by formula (II) was added to the HCV replicon cells, then 72 hours later the cell extract was treated for one hour with 1% NP-40. Raft proteins (solubilizer-resistant) and non-raft proteins were separated using the sucrose density gradient fractionation method, diluted with PBS, concentrated, and then quantified by ELISA analysis."}, "HCV-NS3 protein": {"test_system": "HCV-NS3 protein", "experiment": "Immunostaining of HCV-NS3 protein in HCV replicon cells", "assay_type": "cell-based", "details": "100 nM, 96 hours", "procedure": "HCV replicon cells were treated with 100 nM of the compound represented by formula (II) for 96 hours, and then the cells were fixed in 3.7% formaldehyde. Blocking with 3% BSA was followed by incubation with an NS3 antibody (provided by F. Hoffman-La Roche), and then the washed cells were incubated with a Texas-Red-labeled rabbit IgG (Molecular probe), and analyzed using a fluorescence microscope (FIG. 10)."}, "[2]": {"test_system": "de novo syntheses of ceramide and sphingomyelin", "experiment": "De novo syntheses of ceramide and sphingomyelin, [14C]serine labeling", "assay_type": "cell-based", "details": "HCV replicon cells, 48 hours treatment, [14C]serine three hours", "procedure": "HCV replicon cells were treated for 48 hours with the compound represented by formula (II) at the concentrations indicated in FIG. 13. The cells were then labeled for three hours with [14C]serine. After extraction with chloroform/methanol (1:2, v/v), de novo synthesized ceramide (FIG. 13A) and sphingomyelin (FIG. 13B) were separated by thin layer chromatography."}},
  "note": "Where two headings read alike, the source gives them in different places.",
  "data": [
    {"molecule": "CCCCCCCC(=O)CCCCCC/C=C/[C@H](C(=O)N[C@@H](Cc1ccc(OCC=C(C)C)cc1)C(=O)O)[C@@](O)(CC(=O)O)C(=O)O", "note": "[Compound (40)]", "values": [
      {"measurement": "inhibition of HCV replication in presence of C2-ceramide", "setting": "HCV replication", "result": "suppressed in a manner dependent on C2-ceramide concentration"},
      {"measurement": "expression levels of NS3, NS5A and NS5B", "setting": "NS3, NS5A, and NS5B", "result": "reduced"},
      {"measurement": "CC50", "setting": "in vitro; HCV replicon cells, FIG. 9, read-out: cytotoxicity CC50", "result": "> 50", "unit": "nM"},
      {"measurement": "CC50", "setting": "in vitro; Huh-3-1 replicon cells, three days, Cell Counting Kit-8, read-out: Cytotoxicity CC50", "result": "> 5000", "unit": "nM"},
      {"measurement": "dissociation of NS5B from the raft", "setting": "[1]; 1 μM, 1% NP-40, ELISA", "result": "significant dissociation of NS5B from the raft"},
      {"measurement": "effect on NS5A and caveolin-2", "setting": "[1]; 1 mM, 1% Nonidet P-40, Western blot", "result": "could not be confirmed"},
      {"measurement": "HCV-NS3 protein around the nucleus (immunostaining)", "setting": "HCV-NS3 protein", "result": "disappeared"},
      {"measurement": "intracellular de novo synthesis of ceramide", "setting": "[2]", "result": "inhibited"},
      {"measurement": "intracellular de novo synthesis of sphingomyelin", "setting": "[2]", "result": "inhibited"}
    ]}
  ]
}
